In paper PMC9297976 (Journal of Applied Toxicology, 2021):

How the values were obtained:
medaka Esr1 (mEsr1) [1] = target: T1, medaka Esr1 (mEsr1) (Oryzias latipes, UniProt P50241); assay: cell-based; parameters: species or system Japanese medaka (Oryzias latipes); conditions: for In vitro positive: Esr: mode of action in which EC50 or PC10 was obtained in RGA
T1 sequence (P50241 1-620): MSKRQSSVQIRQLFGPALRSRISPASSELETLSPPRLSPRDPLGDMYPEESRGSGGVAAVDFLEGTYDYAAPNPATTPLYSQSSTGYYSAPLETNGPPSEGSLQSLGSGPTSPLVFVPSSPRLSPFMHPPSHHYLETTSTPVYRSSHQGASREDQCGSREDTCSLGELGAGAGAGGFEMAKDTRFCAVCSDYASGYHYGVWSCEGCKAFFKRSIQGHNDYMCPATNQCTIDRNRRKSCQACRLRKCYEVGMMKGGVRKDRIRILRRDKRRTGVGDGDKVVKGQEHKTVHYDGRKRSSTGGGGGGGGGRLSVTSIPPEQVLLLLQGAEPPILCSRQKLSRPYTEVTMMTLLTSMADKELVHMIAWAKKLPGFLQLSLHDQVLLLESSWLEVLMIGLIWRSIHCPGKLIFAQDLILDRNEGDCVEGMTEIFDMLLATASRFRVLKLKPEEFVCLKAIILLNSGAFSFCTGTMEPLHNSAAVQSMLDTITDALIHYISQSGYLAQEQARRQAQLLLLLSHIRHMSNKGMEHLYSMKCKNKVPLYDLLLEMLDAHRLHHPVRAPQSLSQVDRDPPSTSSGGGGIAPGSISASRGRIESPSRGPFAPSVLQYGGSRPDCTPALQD

medaka Esr1 (mEsr1) [2] = target: T1, medaka Esr1 (mEsr1); assay: Medaka Esr1 reporter gene assay, antagonist assay; format: cell-based, Japanese medaka (Oryzias latipes); conditions: MAC = 1.0 × 10^−5 M
medaka ARβ (mArβ) [3] = target: T2, medaka ARβ (mArβ) (Oryzias latipes, UniProt D1MV73); assay: Medaka ARβ reporter gene assay, agonist assay; format: cell-based, Japanese medaka (Oryzias latipes); conditions: MAC = 1.0 × 10^−5 M
T2 sequence (D1MV73 1-744): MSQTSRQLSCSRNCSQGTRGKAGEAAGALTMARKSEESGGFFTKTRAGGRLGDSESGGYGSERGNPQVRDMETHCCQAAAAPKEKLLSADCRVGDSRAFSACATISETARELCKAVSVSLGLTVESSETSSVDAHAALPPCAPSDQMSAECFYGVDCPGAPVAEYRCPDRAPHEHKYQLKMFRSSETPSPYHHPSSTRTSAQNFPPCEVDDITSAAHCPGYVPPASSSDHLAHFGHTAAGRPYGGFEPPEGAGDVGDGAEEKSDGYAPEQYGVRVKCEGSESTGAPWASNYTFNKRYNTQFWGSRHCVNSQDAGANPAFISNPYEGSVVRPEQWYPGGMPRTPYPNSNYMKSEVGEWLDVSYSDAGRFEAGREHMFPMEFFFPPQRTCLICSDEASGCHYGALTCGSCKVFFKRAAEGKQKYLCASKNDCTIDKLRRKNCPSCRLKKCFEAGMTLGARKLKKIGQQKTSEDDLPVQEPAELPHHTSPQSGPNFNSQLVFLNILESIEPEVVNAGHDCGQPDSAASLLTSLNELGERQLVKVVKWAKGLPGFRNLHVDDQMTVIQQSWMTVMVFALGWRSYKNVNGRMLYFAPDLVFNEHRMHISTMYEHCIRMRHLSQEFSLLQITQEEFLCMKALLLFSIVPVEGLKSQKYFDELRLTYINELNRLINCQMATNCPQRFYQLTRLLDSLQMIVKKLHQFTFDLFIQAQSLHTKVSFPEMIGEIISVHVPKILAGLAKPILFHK

medaka ARβ (mArβ) [4] = target: T2, medaka ARβ (mArβ); assay: Medaka ARβ reporter gene assay, antagonist assay; format: cell-based, Japanese medaka (Oryzias latipes); conditions: 11‐KT spiked at 50 nM (D); MAC = 1.0 × 10^−5 M
[5] = system: Japanese medaka (Oryzias latipes); assay: Fish Short‐Term Reproduction Assay; format: in vivo; conditions: for LOECREPRO: LOEC on reproduction (fecundity and/or fertility); for minimal effective concentration: Oryzias latipes, 504 h, read-out: LOECmVTG; for LOECTOX: lowest observed effect concentration on mortality; for GSI Female / GSI Male / HSI Female / HSI Male / Length Female / Length Male / Weight Female / Weight Male: completion of exposure
[6] = 2.94 mg/L measured, 21 d, sig. ↑ vs control
[7] = 2.94 mg/L measured, 21 d, sig. ↓ vs control
[8] = measured concentration 0.311 mg/L
[9] = measured concentration 0.926 mg/L
[10] = measured concentration 2.94 mg/L
[11] = measured concentration 184 μg/L
[12] = measured concentration 836 μg/L

Structure (SMILES): CCCOC(=O)c1ccc(O)cc1 [PPB, 4‐Hydroxybenzoate propyl]
- EC50 (medaka Esr1 (mEsr1) [1]): 7 µM
- In vitro positive: Esr (medaka Esr1 (mEsr1) [1]): Esr
- Antagonistic activity (medaka Esr1 (mEsr1) [2]; E2 spiked at 0.2 nM (A)): NE (MAC = 1.0 × 10^−5 M)^(A)
- Agonistic activity (medaka ARβ (mArβ) [3]): NE (MAC = 1.0 × 10^−5 M)
- Antagonistic activity (medaka ARβ (mArβ) [4]): NE (MAC = 1.0 × 10^−5 M)^(D)
- Fertility rate ([5]; 0.311 mg/L measured, 21 d): 93 ± 3.1%
- Hepatic VTG, female ([5]; 0.311 mg/L measured, 21 d): 1,190 ± 238 ng/mg‐liver
- Mortality ([5]; 0.311 mg/L measured, 21 d): 0.0%
- Mortality, number of dead fish ([5]; 0.311 mg/L measured, 21 d): 0
- Number of fertilized eggs (per female per day) ([5]; 0.311 mg/L measured, 21 d): 26 ± 0.8
- Number of total eggs (per female per day) ([5]; 0.311 mg/L measured, 21 d): 28 ± 1.6
- SSC female (joint plates with papillary processes) ([5]; 0.311 mg/L measured, 21 d): 0 ± 0
- Hepatic VTG, male ([5]; 0.311 mg/L measured, 21 d, sig. ↑ vs control): 23.7 ± 9.0 ng/mg‐liver
- Fertility rate ([5]; 0.926 mg/L measured, 21 d): 94 ± 3.7%
- Hepatic VTG, female ([5]; 0.926 mg/L measured, 21 d): 1,590 ± 271 ng/mg‐liver
- Mortality ([5]; 0.926 mg/L measured, 21 d): 0.0%
- Mortality, number of dead fish ([5]; 0.926 mg/L measured, 21 d): 0
- Number of total eggs (per female per day) ([5]; 0.926 mg/L measured, 21 d): 23 ± 2.0
- SSC female (joint plates with papillary processes) ([5]; 0.926 mg/L measured, 21 d): 0 ± 0
- Hepatic VTG, male ([5]; 0.926 mg/L measured, 21 d, sig. ↑ vs control): 42.2 ± 36.8 ng/mg‐liver
- Number of fertilized eggs (per female per day) ([5]; 0.926 mg/L measured, 21 d, sig. ↓ vs control): 22 ± 1.6
- Mortality ([5]; 2.94 mg/L measured, 21 d): 0.0%
- Mortality, number of dead fish ([5]; 2.94 mg/L measured, 21 d): 0
- SSC female (joint plates with papillary processes) ([5]; 2.94 mg/L measured, 21 d): 0 ± 0
- Hepatic VTG, female [5, 6]: 3,540 ± 1,080 ng/mg‐liver
- Hepatic VTG, male [5, 6]: 4,170 ± 513 ng/mg‐liver
- Fertility rate [5, 7]: 41 ± 23%
- Number of total eggs (per female per day) [5, 7]: 10 ± 4.7
- Change of hepatic VTG levels in females (in words) ([5]; 21 d): significant increase
- Fecundity, number of total eggs (in words) ([5]; 21 d): statistically significant decrease
- LOEC, elevated hepatic VTG in males ([5]; 21 d): 0.311 mg/L
- LOECREPRO [5]: 926 µg/L
- minimal effective concentration [5]: 0.311 µg/mL
- LOECREPRO (reduction in fecundity or fertility) ([5]; concentrations without overt toxicity): 926 µg/L
- LOECTOX [5]: ND (>2,940) μg/L
- GSI Female [5, 8]: 10.0 ± 0.2%
- GSI Male [5, 8]: 0.74 ± 0.14%
- HSI Female [5, 8]: 5.4 ± 0.75%
- HSI Male [5, 8]: 2.7 ± 0.98%
- Length Female [5, 8]: 36.1 ± 0.2 mm
- Length Male [5, 8]: 36.4 ± 1.3 mm
- Weight Female [5, 8]: 525 ± 27 mg
- Weight Male [5, 8]: 525 ± 13 mg
- GSI Female [5, 9]: 9.9 ± 1.1%
- GSI Male [5, 9]: 0.78 ± 0.05%
- HSI Female [5, 9]: 5.1 ± 0.20%
- HSI Male [5, 9]: 2.7 ± 0.23%
- Length Female [5, 9]: 36.8 ± 0.8 mm
- Length Male [5, 9]: 37.1 ± 1.7 mm
- Weight Female [5, 9]: 539 ± 21 mg
- Weight Male [5, 9]: 515 ± 49 mg
- GSI Female [5, 10]: 10.0 ± 1.1%
- GSI Male [5, 10]: 0.81 ± 0.21%
- HSI Female [5, 10]: 4.3 ± 0.77%
- HSI Male [5, 10]: 2.3 ± 0.14%
- Length Female [5, 10]: 36.5 ± 1.5 mm
- Length Male [5, 10]: 36.5 ± 0.9 mm
- Weight Female [5, 10]: 549 ± 83 mg
- Weight Male [5, 10]: 490 ± 26 mg

Structure (SMILES): CC(C)COC(=O)c1ccccc1C(=O)OCC(C)C [DIBP, Diisobutyl phthalate]
- Agonistic activity PC10 (medaka Esr1 (mEsr1) [1]): PC10 = 3.0 × 10^−6 M
- In vitro positive: Esr (medaka Esr1 (mEsr1) [1]): Esr
- Antagonistic activity (medaka Esr1 (mEsr1) [2]; E2 spiked at 1.0 nM (B)): NE (MAC = 1.0 × 10^−5 M)^(B)
- Agonistic activity (medaka ARβ (mArβ) [3]): NE (MAC = 1.0 × 10^−5 M)
- Antagonistic activity (medaka ARβ (mArβ) [4]): NE (MAC = 1.0 × 10^−5 M)^(D)
- Fertility rate ([5]; 35 μg/L measured, 21 d): 97 ± 4.8%
- Hepatic VTG, female ([5]; 35 μg/L measured, 21 d): 596 ± 144 ng/mg‐liver
- Hepatic VTG, male ([5]; 35 μg/L measured, 21 d): 0.3 ± 0.4 ng/mg‐liver
- Mortality ([5]; 35 μg/L measured, 21 d): 0.0%
- Mortality, number of dead fish ([5]; 35 μg/L measured, 21 d): 0
- Number of fertilized eggs (per female per day) ([5]; 35 μg/L measured, 21 d): 23 ± 6.6
- Number of total eggs (per female per day) ([5]; 35 μg/L measured, 21 d): 24 ± 7.0
- SSC female (joint plates with papillary processes) ([5]; 35 μg/L measured, 21 d): 0 ± 0
- SSC male (joint plates with papillary processes) ([5]; 35 μg/L measured, 21 d): 96 ± 11
- Fertility rate ([5]; 184 μg/L measured, 21 d): 97 ± 3.9%
- Hepatic VTG, male ([5]; 184 μg/L measured, 21 d): 0.2 ± 0.1 ng/mg‐liver
- Mortality ([5]; 184 μg/L measured, 21 d): 0.0%
- Mortality, number of dead fish ([5]; 184 μg/L measured, 21 d): 0
- Number of fertilized eggs (per female per day) ([5]; 184 μg/L measured, 21 d): 23 ± 6.9
- Number of total eggs (per female per day) ([5]; 184 μg/L measured, 21 d): 24 ± 7.2
- SSC female (joint plates with papillary processes) ([5]; 184 μg/L measured, 21 d): 0 ± 0
- SSC male (joint plates with papillary processes) ([5]; 184 μg/L measured, 21 d): 96 ± 10
- Hepatic VTG, female ([5]; 184 μg/L measured, 21 d, sig. ↓ vs control): 404 ± 85 ng/mg‐liver
- Fertility rate ([5]; 836 μg/L measured, 21 d): 96 ± 5.4%
- Hepatic VTG, male ([5]; 836 μg/L measured, 21 d): 2.2 ± 3.2 ng/mg‐liver
- Mortality ([5]; 836 μg/L measured, 21 d): 0.0%
- Mortality, number of dead fish ([5]; 836 μg/L measured, 21 d): 0
- Number of fertilized eggs (per female per day) ([5]; 836 μg/L measured, 21 d): 24 ± 5.9
- Number of total eggs (per female per day) ([5]; 836 μg/L measured, 21 d): 25 ± 5.8
- SSC female (joint plates with papillary processes) ([5]; 836 μg/L measured, 21 d): 0 ± 0
- SSC male (joint plates with papillary processes) ([5]; 836 μg/L measured, 21 d): 97 ± 18
- Hepatic VTG, female ([5]; 836 μg/L measured, 21 d, sig. ↓ vs control): 421 ± 73 ng/mg‐liver
- LOECREPRO [5]: ND (>836) μg/L
- minimal effective concentration [5]: > 0.836 µg/mL
- LOECTOX [5]: ND (>836) μg/L
- GSI Female ([5]; measured concentration 35 μg/L): 13.3 ± 2.3%
- GSI Male ([5]; measured concentration 35 μg/L): 1.2 ± 0.2%
- HSI Female ([5]; measured concentration 35 μg/L): 6.3 ± 1.60%
- HSI Male ([5]; measured concentration 35 μg/L): 2.7 ± 0.40%
- Length Female ([5]; measured concentration 35 μg/L): 33.6 ± 1.5 mm
- Length Male ([5]; measured concentration 35 μg/L): 31.9 ± 1.2 mm
- Weight Female ([5]; measured concentration 35 μg/L): 446 ± 48 mg
- Weight Male ([5]; measured concentration 35 μg/L): 335 ± 39 mg
- GSI Female [5, 11]: 13.6 ± 1.9%
- GSI Male [5, 11]: 1.0 ± 0.3%
- HSI Female [5, 11]: 6.3 ± 0.90%
- HSI Male [5, 11]: 3.1 ± 0.40%
- Length Female [5, 11]: 32.6 ± 1.5 mm
- Length Male [5, 11]: 31.8 ± 1.4 mm
- Weight Female [5, 11]: 405 ± 52 mg
- Weight Male [5, 11]: 329 ± 55 mg
- GSI Female [5, 12]: 12.0 ± 2.0%
- GSI Male [5, 12]: 1.2 ± 0.4%
- HSI Female [5, 12]: 5.9 ± 1.30%
- HSI Male [5, 12]: 3.4 ± 0.40%
- Length Female [5, 12]: 32.6 ± 1.4 mm
- Length Male [5, 12]: 32.4 ± 1.7 mm
- Weight Female [5, 12]: 413 ± 61 mg
- Weight Male [5, 12]: 348 ± 62 mg
